# Assays:
# [1] = biological target: T1, recombinant FGFR1 (C584S) kinase domain (Homo sapiens, UniProt P11362, C584S); assay: FGFR1 (C584S) covalent binding protein mass spectrometry assay; details: protein:inhibitor 1:10, 37° C.
# T1 construct: made in house; host or cells: pETDuet vector, IPTG induction in Terrific Broth (bacterial)
# Method: The previously cloned C488A/C584S FGFR1 construct was modified by site-directed mutagenesis to provide a gene encoding the C584S FGFR1 kinase domain with the cysteine at amino acid C488 reinstated. Expression and purification of this protein followed the protocol described above but with the addition of 10% glycerol to all buffers and a change of buffer pH to a value of 8.5. Protein for mass spectrometry was concentrated to ˜40 mg/ml and was mixed 1:1 (v/v) with glycerol, and then frozen at −20° C. or flash cooled in liquid nitrogen and stored at −80° C. until needed.
# Protein samples were buffer exchanged to remove glycerol (the final buffer comprised 20 mM Tris-HCl pH 8.5, 10% (v/v) glycerol, 20 mM NaCl, 5 mM EDTA, 2 mM TCEP) and were mixed with each inhibitor at 1:10 molar ratio (protein:inhibitor). Final protein concentration was 20 μM. […] Samples were mixed with 90 μL of 0.1% formic acid to quench the reaction followed by flash cooling in liquid nitrogen. Samples were stored at −80° C. until needed. All experiments were carried out in triplicate.
# Samples were subjected to liquid chromatography mass spectrometry (LC-MS) to show mass changes attributable to irreversible inhibition. Mass spectrometry experiments were performed at the University of Auckland Mass Spectrometry Center using an electropspray QSTAR® XL ESI quadrupole Time-of-Flight (QToF) MS system (Applied Biosystems) operated in positive ionization mode. The instrument was calibrated using Renin Substrate Standard (SCIEX), over the m/z range 100-2000. Protein/inhibitor samples were thawed and 2 μL volumes injected into a liquid chromatography (LC) BIOshell™ A400 Protein C4 HPLC column (10 cm×2.1 mm, 3.4 μm) attached to the mass spectrometer. […] Following elution, samples were directly injected into the mass spectrometer for separation and mass analysis. Mass spectrometry data were processed and analysed using the PeakView™ 2.1 software and the Bio Tool Kit plug-in (SCIEX) and covered an m/z range of 330-1600. Deconvolution calculations allowed visualisation of intact mass protein peaks and allowed peak area measurement to assess the percentage of protein covalently modified by each inhibitor at each time point. Data was plotted using GraphPad Prism 7 (GraphPad).
# FGFR3 = biological target: T2, FGFR3 (Homo sapiens, UniProt P22607); assay: Isolated enzyme FRET-based Z-Lyte kinase inhibition assay; type: biochemical; details: means from 3 independent experiments; read-out: Isolate Enzyme Inhibition IC50, FGFR3
# T2 construct: purchased Invitrogen
# Method: (§1) FGFR1-4 and the Z-Lyte Kinase Assay Kit were purchased from Invitrogen. The concentration gradients from 5.1×10^−11 to 1.0×10^−6 mol/L were used for all the test compounds. The experiments were performed according to the instructions of the manufacturer.
# (§2) FGFR1-4 isolated enzyme activity was determined using the FRET-based Z-Lyte kinase inhibition assay. The data are the means from 3 independent experiments.
# FGFR2 = biological target: T3, FGFR2 (Homo sapiens, UniProt P21802); assay: as above; type: biochemical; details: means from 3 independent experiments; read-out: Isolate Enzyme Inhibition IC50, FGFR2
# T3 construct: purchased Invitrogen
# Method: as §1, §2
# FGFR4 = biological target: T4, FGFR4 (Homo sapiens, UniProt P22455); assay: as above; type: biochemical; details: means from 3 independent experiments; read-out: Isolate Enzyme Inhibition IC50, FGFR4
# T4 construct: purchased Invitrogen
# Method: as §1, §2
# [2] = test system: FGFR4-amplified Hep3B hepatocellular carcinoma cells; assay: Cell proliferation assay (SRB); type: cell-based; details: Homo sapiens, Hep3B; read-out: Cellular Anti-proliferative IC50, Hep3B
# [3] = test system: FGFR2-amplified SUM52 breast cancer cells; assay: Cell proliferation assay (SRB); type: cell-based; details: SUM52, 120 h, read-out: Cellular Anti-proliferative IC50, SUM52, 5 days drug exposure
# [4] = test system: FGFR3-amplified SW780 bladder cancer cells; assay: Cell proliferation assay (SRB); details: Homo sapiens, SW780, 120 h, read-out: Cellular Anti-proliferative IC50, SW780, 5 days drug exposure
# [5] = test system: FGFR3 in SW780 cells (phospho-ERK1/2); assay: Drug washout Western blot assay, SW780 cells; type: cell-based; details: SW780; for phospho-ERK1/2 after extensive drug washout: washout prior to FGF-stimulation
# [6] = test system: FGFR1 in H520 cells (phospho-ERK1/2); assay: Drug washout Western blot assay, H520 cells; type: cell-based; details: H520, 30 min, washout prior to FGF-stimulation
# [7] = test system: FGFR2 in SUM52 cells (phospho-ERK1/2); assay: Drug washout Western blot assay, SUM52 cells; type: cell-based; details: SUM52; for phospho-ERK1/2 after extensive drug washout: washout prior to FGF-stimulation
# Method: Cells were seeded on the day prior to drug treatment (1 million cells/well; 6-well plate).
# Drug stocks were prepared in media using 1 mM or 10 mM DMSO stock solutions. Media was aspirated from each well and replaced with 2 ml of drug-free media for control wells or 2 ml of diluted drug for treated wells. Cells were exposed to drug for 30 min. Recombinant FGF (50 ng/well) was added to each well 15 minutes prior to the end of the drug exposure and protein was extracted as below.
# Cells were exposed to drug for 30 min as above. Media was aspirated and each well was washed with 5 ml drug-free media. The wash media was aspirated and replaced with 2 ml drug-free media and cells incubated for a further 30 minutes, after which the wash protocol was repeated. Cells were incubated for a further 90 minutes in drug-free media. Recombinant FGF (50 ng/well) was added to each well 15 minutes prior to the end of the drug-free incubation and protein was extracted as below.
# Cell lysates were prepared in 250 μL of RIPA lysis buffer containing protease inhibitor (1:100). After incubation on ice (30 min) and centrifugation (13,000 rpm, 5 min, 4° C.) the supernatants containing the proteins were stored (−20° C.) until required. Bicinchoninic acid (BCA) assay was used to determine the protein concentration of individual cell lysate samples.
# [8] = 100 nM, 30 min, then FGF-stimulation
# [9] = 30 min exposure, 100 nM, with and without washout
# T1 sequence (P11362 with tags, fused parts or gaps C584S): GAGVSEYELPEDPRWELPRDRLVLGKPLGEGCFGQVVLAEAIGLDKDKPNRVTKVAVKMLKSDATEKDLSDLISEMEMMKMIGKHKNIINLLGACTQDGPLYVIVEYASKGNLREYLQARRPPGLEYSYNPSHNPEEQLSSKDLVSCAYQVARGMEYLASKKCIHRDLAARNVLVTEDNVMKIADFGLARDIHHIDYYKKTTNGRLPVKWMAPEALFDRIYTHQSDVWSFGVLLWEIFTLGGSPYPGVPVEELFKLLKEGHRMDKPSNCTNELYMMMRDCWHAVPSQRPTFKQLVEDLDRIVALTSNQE
# T2 sequence (P22607 23-806): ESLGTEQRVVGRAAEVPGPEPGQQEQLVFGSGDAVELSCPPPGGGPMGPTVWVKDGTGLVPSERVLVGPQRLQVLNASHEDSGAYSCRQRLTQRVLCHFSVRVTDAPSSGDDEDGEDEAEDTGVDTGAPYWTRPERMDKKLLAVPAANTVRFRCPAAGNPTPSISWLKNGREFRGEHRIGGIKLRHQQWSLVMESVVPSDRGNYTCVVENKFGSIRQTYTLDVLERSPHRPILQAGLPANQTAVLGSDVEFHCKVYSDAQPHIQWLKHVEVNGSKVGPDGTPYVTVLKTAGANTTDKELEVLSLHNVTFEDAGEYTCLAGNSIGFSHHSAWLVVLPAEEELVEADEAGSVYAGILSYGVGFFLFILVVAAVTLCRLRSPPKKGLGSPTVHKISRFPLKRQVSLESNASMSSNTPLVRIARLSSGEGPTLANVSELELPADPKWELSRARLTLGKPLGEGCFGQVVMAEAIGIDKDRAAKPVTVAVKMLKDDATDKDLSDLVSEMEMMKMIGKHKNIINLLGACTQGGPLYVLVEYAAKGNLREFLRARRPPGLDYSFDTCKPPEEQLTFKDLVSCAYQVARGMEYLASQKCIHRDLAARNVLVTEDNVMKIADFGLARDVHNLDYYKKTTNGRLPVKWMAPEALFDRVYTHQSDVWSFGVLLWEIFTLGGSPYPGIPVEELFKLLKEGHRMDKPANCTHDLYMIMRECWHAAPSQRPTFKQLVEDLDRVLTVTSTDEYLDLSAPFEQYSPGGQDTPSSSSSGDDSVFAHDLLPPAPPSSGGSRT
# T3 sequence (P21802 22-821): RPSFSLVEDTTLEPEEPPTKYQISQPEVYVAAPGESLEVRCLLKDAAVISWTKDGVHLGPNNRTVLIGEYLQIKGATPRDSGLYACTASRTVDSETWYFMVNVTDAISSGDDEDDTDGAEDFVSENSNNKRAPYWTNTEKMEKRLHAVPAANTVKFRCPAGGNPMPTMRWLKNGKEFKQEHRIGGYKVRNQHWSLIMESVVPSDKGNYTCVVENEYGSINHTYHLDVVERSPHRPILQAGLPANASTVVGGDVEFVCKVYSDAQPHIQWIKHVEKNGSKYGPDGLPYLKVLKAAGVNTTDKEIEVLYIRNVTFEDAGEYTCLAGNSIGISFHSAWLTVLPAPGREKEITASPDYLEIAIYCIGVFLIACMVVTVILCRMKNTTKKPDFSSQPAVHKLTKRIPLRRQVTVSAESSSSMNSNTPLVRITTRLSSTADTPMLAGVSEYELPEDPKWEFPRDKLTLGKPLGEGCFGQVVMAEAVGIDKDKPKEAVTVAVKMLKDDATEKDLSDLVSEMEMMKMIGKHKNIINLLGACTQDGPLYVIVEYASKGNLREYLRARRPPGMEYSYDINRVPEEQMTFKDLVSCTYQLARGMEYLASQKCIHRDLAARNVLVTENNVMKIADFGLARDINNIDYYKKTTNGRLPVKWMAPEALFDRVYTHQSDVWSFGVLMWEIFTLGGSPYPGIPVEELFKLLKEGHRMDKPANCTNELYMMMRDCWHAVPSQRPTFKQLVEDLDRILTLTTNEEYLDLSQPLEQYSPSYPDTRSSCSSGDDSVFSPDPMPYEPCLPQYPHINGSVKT
# T4 sequence (P22455 22-802): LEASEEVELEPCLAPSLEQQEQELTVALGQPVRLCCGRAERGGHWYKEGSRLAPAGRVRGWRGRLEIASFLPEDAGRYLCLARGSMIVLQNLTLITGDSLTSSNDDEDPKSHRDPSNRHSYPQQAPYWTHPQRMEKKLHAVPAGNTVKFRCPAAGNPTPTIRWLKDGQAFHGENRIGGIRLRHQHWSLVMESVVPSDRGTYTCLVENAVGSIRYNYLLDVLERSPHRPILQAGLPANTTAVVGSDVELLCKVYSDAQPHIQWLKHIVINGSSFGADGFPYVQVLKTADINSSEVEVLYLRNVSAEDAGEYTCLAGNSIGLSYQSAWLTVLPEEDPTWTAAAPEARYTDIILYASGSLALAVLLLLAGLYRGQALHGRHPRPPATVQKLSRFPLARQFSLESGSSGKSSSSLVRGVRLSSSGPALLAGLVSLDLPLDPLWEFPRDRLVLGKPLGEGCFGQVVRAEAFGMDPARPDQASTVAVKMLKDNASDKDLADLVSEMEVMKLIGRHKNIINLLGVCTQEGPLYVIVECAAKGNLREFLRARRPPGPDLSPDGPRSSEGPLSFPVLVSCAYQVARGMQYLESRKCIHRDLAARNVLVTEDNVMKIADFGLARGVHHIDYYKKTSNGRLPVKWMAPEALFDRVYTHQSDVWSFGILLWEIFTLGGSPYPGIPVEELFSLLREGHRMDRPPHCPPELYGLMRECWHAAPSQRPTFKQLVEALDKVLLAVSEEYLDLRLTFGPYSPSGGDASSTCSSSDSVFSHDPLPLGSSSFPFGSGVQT
smiles,measurement,setting,value
"COc1cc(OC)c(Cl)c(N2Cc3cnc(Nc4ccc(N5CCOCC5)cc4)nc3N(C3CCN(C(=O)/C=C/CN(C)C)CC3)C2=O)c1 [Compound 130, (E)-3-(2-chloro-3,5-dimethoxyphenyl)-1-(1-(4-(dimethylamino)but-2-enoyl)piperidin-4-yl)-7-((4-morpholinophenyl)amino)-3,4-dihydropyrimido[4,5-d]pyrimidin-2(1H)-one]",% Conversion to FGFR1 (C584S) covalent adduct after 120 minutes incubation,[1],46%
"CNc1ncc2c(n1)N([C@@H]1CCN(C(=O)/C=C/CN(C)C)C1)C(=O)N(c1c(Cl)c(OC)cc(OC)c1Cl)C2 [Compound 102, (R,E)-3-(2,6-dichloro-3,5-dimethoxyphenyl)-1-(1-(4-(dimethylamino)but-2-enoyl)pyrrolidin-3-yl)-7-(methylamino)-3,4-dihydropyrimido[4,5-d]pyrimidin-2(1H)-one]",IC50,FGFR3,703 nM
same,IC50,FGFR2,15 nM
same,IC50,FGFR4,> 1000 nM
same,IC50,[2],1430 nM
same,IC50,[3],51 nM
same,IC50,[4],700 nM
"COc1cc(OC)cc(N2Cc3cnc(Nc4ccc(N5CCOCC5)cc4)nc3N(C3CCN(C(=O)/C=C/CN(C)C)CC3)C2=O)c1 [Compound 131, (E)-3-(3,5-dimethoxyphenyl)-1-(1-(4-(dimethylamino)but-2-enoyl)piperidin-4-yl)-7-((4-morpholinophenyl)amino)-3,4-dihydropyrimido[4,5-d]pyrimidin-2(1H)-one]",% Conversion to FGFR1 (C584S) covalent adduct after 120 minutes incubation,[1],39%
"COc1cc(OC)c(Cl)c(N2Cc3cnc(Nc4ccc(N5CCOCC5)cc4)nc3N(C3CCN(C(=O)/C=C/CN(C)C)CC3)C2=O)c1Cl [Compound 129, (E)-3-(2,6-dichloro-3,5-dimethoxyphenyl)-1-(1-(4-(dimethylamino)but-2-enoyl)piperidin-4-yl)-7-((4-morpholinophenyl)amino)-3,4-dihydropyrimido[4,5-d]pyrimidin-2(1H)-one]",% Conversion to FGFR1 (C584S) covalent adduct after 120 minutes incubation,[1],46%
"COc1cc(OC)c(Cl)c(N2Cc3cnc(Nc4ccccc4)nc3N(C3CCN(C(=O)/C=C/CN(C)C)CC3)C2=O)c1 [Compound 128, (E)-3-(2-chloro-3,5-dimethoxyphenyl)-1-(1-(4-(dimethylamino)but-2-enoyl)piperidin-4-yl)-7-(phenylamino)-3,4-dihydropyrimido[4,5-d]pyrimidin-2(1H)-one]",% Conversion to FGFR1 (C584S) covalent adduct after 120 minutes incubation,[1],48%
"CNc1ncc2c(n1)N([C@H]1CCN(C(=O)/C=C/CN(C)C)C1)C(=O)N(c1c(Cl)c(OC)cc(OC)c1Cl)C2 [Compound 103, (S,E)-3-(2,6-dichloro-3,5-dimethoxyphenyl)-1-(1-(4-(dimethylamino)but-2-enoyl)pyrrolidin-3-yl)-7-(methylamino)-3,4-dihydropyrimido[4,5-d]pyrimidin-2(1H)-one]",IC50,FGFR3,17 nM
same,IC50,FGFR2,3.3 nM
same,IC50,FGFR4,287 nM
same,"inhibition of phosphorylation of ERK1/2, no washout",[5]; [8],complete inhibition
same,phospho-ERK1/2 after extensive drug washout,"[5]; 100 nM, 30 min",restoration
same,phospho-ERK1/2 after extensive drug washout,"[5]; 1000 nM, 30 min",restoration
same,reversible or irreversible inhibition of FGFR3 in cells,[5]; [9],reversible inhibitor
same,phospho-ERK1/2 after extensive drug washout,[6]; 100 nM,restoration
same,phospho-ERK1/2 after extensive drug washout,[6]; 1000 nM,restoration
same,IC50,[2],48 nM
same,"inhibition of phosphorylation of ERK1/2, no washout",[7]; [8],complete inhibition
same,phospho-ERK1/2 after extensive drug washout,"[7]; 100 nM, 30 min",restoration
same,phospho-ERK1/2 after extensive drug washout,"[7]; 1000 nM, 30 min",restoration
same,reversible or irreversible inhibition of FGFR2 in cells,[7]; [9],reversible inhibitor
same,IC50,[3],4.8 nM
same,IC50,[4],31 nM

# From patent US11192890B2, “FGFR kinase inhibitors and pharmaceutical uses” (AUCKLAND UNISERVICES LIMITED, priority 2017, dated 2021)
